Assays:
KRAS G12D = target: T1, KRAS G12D (Homo sapiens, UniProt P01116, G12D); assay: Evaluation of KRAS degradation activity on AsPC-1 by Cell ELISA (Test Example 1); type: cell-based; conditions: degradation rate of KRAS G12D at 1 μM in AsPC-1 cells, cultured overnight, corrected with β-actin
T1 construct: host or cells: AsPC-1 human pancreatic cancer cells
Method: Test Example 1: Evaluation of KRAS Degradation Activity on Human G12D Mutant KRAS-Positive Pancreatic Cancer Line AsPC-1 (CRL-1682; ATCC)
The KRAS degradation activity of test compounds was evaluated by measuring the expression levels of KRAS G12D by Cell ELISA.
AsPC-1 cells were seeded at 20 μL per well on 384-well plates (from Greiner bio-one) to give 2.0×10^4 cells per well. As for the cell culture conditions, RPMI 1640 (from Sigma-Aldrich) medium containing 10% fetal bovine serum (from Cytiva) was used in the presence of 5% CO2 at 37° C.
The next day, the test compounds (10 points having final concentrations in the range of 10 μM to 0.3 nM) and DMSO (from FUJIFILM Wako Pure Chemical Corporation), which was the solvent for the test compounds, as a negative control were diluted 500-fold with a fresh medium and were added at 20 μL per well. The cells were cultured overnight.
The next day, the culture supernatant was removed, and 4% paraformaldehyde phosphate buffer (from FUJIFILM Wako Pure Chemical Corporation) was added at 20 μL per well. The plates were allowed to stand for 30 minutes at room temperature to thus immobilize the cells. Then, the supernatant was removed, and 0.1% Triton X-100 (from Amersham Biosciences)-containing Phosphate buffered saline (PBS; from FUJIFILM Wako Pure Chemical Corporation) was added at 20 μL per well. After allowing to stand for 10 minutes at room temperature, the supernatant was removed. PBS was added at 25 μL per well, and the supernatant was removed to thus wash each well. The washing was performed twice in total. Next, the supernatant was removed, and 0.5% sodium dodecyl sulfate (SDS; from Invitrogen)-containing PBS was added at 20 μL per well. After allowing to stand at room temperature for 10 minutes, the supernatant was removed by a centrifugal operation (using a centrifugal dehydrator machine, the supernatant was removed by the same method hereinafter). PBS was added at 25 μL per well, and the supernatant was removed to thus wash each well. The washing was performed twice in total. The supernatant was removed, and blocking solution (Intercept Blocking Buffer; from Li-COR Biosciences) was added at 20 μL per well. After allowing to stand for 30 minutes at room temperature, the supernatant was removed, and a solution obtained by diluting anti-β-actin antibody (Anti-beta Actin antibody [mAbcam 8226]-Loading Control; from abcam) 1,000-fold with blocking solution and a solution obtained by diluting anti-Ras (G12D Mutant Specific) antibody (Ras (G12D Mutant Specific) (D8H7) Rabbit mAb #14429; from Cell Signaling Technology) and anti-β-actin antibody (from abcam) 1,000-fold with blocking solution were respectively added to positive control wells and the other wells at 15 μL per well as a primary antibody. The plates were allowed to stand overnight at 4° C.
The next day, the supernatant was removed. PBS was added at 25 μL per well, and the supernatant was removed to thus wash each well. The washing was performed twice in total. The supernatant was removed, and a solution obtained by diluting Donkey anti-Mouse IgG H&L (IRDye 680RD) (from Li-COR Biosciences) and Goat anti-Rabbit IgG H&L (IRDye 800CW) (from Li-COR Biosciences) 1,000-fold with blocking solution was added at 15 μL per well as a secondary antibody. After allowing to stand for 1 hour at room temperature, the supernatant was removed. PBS was added at 25 μL per well, and the supernatant was removed to thus wash each well. The washing was performed twice in total. After removing the supernatant, the plates were dried with air at room temperature for 2 hours or more, and the 700 nm and 800 nm fluorescent signals were measured with Aerius (from Li-COR Biosciences). […]

[1] = tested on: human G12D mutant KRAS-positive pancreatic cancer line AsPC-1; assay: Non-anchorage-dependent cell growth inhibitory effect, spheroid 3D cell culture (Test Example 2); type: cell-based; conditions: AsPC-1 spheroid 3D culture, 6 days, CellTiter Glo 2.0
Method: Test Example 2: Evaluation of Non-Anchorage-Dependent Cell Growth Inhibitory Effect on Human G12D Mutant KRAS-Positive Pancreatic Cancer Line AsPC-1
The non-anchorage-dependent cell growth inhibitory effect of test compounds was evaluated by spheroid 3D cell culture.
AsPC-1 cells were seeded on low-cell-adhesive round bottom 384-well plates (PrimeSurface: from Sumitomo Bakelite) at 36 μL/well to give 5×10^2 cells per well. As for the cell culture conditions, RPMI 1640 medium containing 10% fetal bovine serum was used in the presence of 5% CO2 at 37° C.
The next day, the test compounds (6 points having final concentrations in the range of 10 μM to 30 nM) and DMSO, which was the solvent for the test compounds, as a negative control were diluted 100-fold with a fresh medium and were added at 4 μL per well. After culturing in the presence of 5% CO2 at 37° C. for 6 days, CellTiter Glo 2.0 (from Promega) was added at 20 μL per well. After stirring with a plate mixer (from FINEPCR) at normal temperature for 1 hour, the luminescent signals were measured with ARVO X3 (from PerkinElmer).
With the signaling value in treatment with DMSO taken as 100% and with the signaling value in the medium alone without cells taken as 0%, the 50% inhibitory concentration values (IC50) were calculated by Sigmoid-Emax nonlinear regression analysis.

Compound | % degradation (KRAS G12D) [%] | IC50 ([1]; Homo sapiens, ASPC1, 144 h) [µM] | IC50 [1] [µM]
Cc1c(F)cc2[nH]ncc2c1-c1c(C2CC2)cc2c(N3C[C@@H]4C[C@H]3CN4)nc(OC3CCOCC3)nc2c1OCc1ccc(C(=O)N2CCC3(CC2)CN(Cc2ccc4c(c2)CN(C(=O)c2cc(C(C)C)c(O)cc2O)C4)C3)cc1 (atropisomer, axis not shown) [Example 10] | 37 | 3.7 | –
Cc1c(F)cc2[nH]ncc2c1-c1c(C2CC2)cc2c(N3C[C@@H]4C[C@H]3CN4)nc(OC3CCOCC3)nc2c1OCc1ccc(C(=O)N2CCN(C(C)C(=O)c3ccc4c(c3)CN(C(=O)c3cc(C(C)C)c(O)cc3O)C4)CC2)cc1 (stereo partly shown) [Example 18] | 20 | 7.4 | –
{4-[({(7M)-6-cyclopropyl-4-[(1S,4S)-2,5-diazabicyclo[2.2.1]heptan-2-yl]-7-(6-fluoro-5-methyl-1H-indazol-4-yl)-2-[(oxan-4-yl)oxy]quinazolin-8-yl}oxy)methyl]phenyl) {4-[(4-{3-[2,4-dihydroxy-5-(propan-2-yl)phenyl]-5-hydroxy-4H-1,2,4-triazol-4-yl)phenyl)methyl]piperazin-1-yl}methanone [Example 5] | 46 | – | 2.2
Cc1c(F)cc2[nH]ncc2c1-c1c(C2CC2)cc2c(N3C[C@@H]4C[C@H]3CN4)nc(OC3CCOCC3)nc2c1OCc1ccc(C(=O)N2C3CCC2CN(Cc2ccc4c(c2)CN(C(=O)c2cc(C(C)C)c(O)cc2O)C4)C3)cc1 [Example 9] | – | 3.4 | –
Cc1c(F)cc2[nH]ncc2c1-c1c(C2CC2)cc2c(N3C[C@@H]4C[C@H]3CN4)nc(OC3CCOCC3)nc2c1OCc1ccc(C(=O)N2CCN(Cc3ccc4c(c3)CN(C(=O)c3cc(C(C)C)c(O)cc3O)C4)CC2)cc1 (atropisomer, axis not shown) [Example 6] | 25 | 3.6 | –
CO[C@@H](O)COc1nc(N(C)[C@H]2CCNC2)c2cc(C3CC3)c(-c3c(C)c(F)cc4[nH]ncc34)c(OCc3ccc(C(=O)N4CCN(C(=O)c5ccc6c(c5)CN(C(=O)c5cc(C(C)C)c(O)cc5O)C6)C[C@@H]4C)cc3)c2n1 (atropisomer, axis not shown) [Example 13] | 57 | 2 | –
Cc1c(F)cc2[nH]ncc2c1-c1c(C2CC2)cc2c(N3C[C@@H]4C[C@H]3CN4)nc(OC3CCOCC3)nc2c1OCc1ccc(C(=O)N2CCN(C(=O)c3ccc4c(c3)CN(C(=O)c3cc(C(C)C)c(O)cc3O)C4)CC2)cc1 (atropisomer, axis not shown; (M)) [Example 1, [5-(4-{4-[({(7M)-6-cyclopropyl-4-[(1S,4S)-2,5-diazabicyclo[2.2.1]heptan-2-yl]-7-(6-fluoro-5-methyl-1H-indazol-4-yl)-2-[(oxan-4-yl)oxy]quinazolin-8-yl}oxy)methyl]benzoyl)piperazine-1-carbonyl)-1,3-dihydro-2H-isoindol-2-yl][2,4-dihydroxy-5-(propan-2-yl)phenyl]methanone] | 43 | 3.3 | –
Cc1c(F)cc2[nH]ncc2c1-c1c(C2CC2)cc2c(N3C[C@@H]4C[C@H]3CN4)nc(OC3CCOCC3)nc2c1OCc1ccc(C(=O)N2CCN(C3CCN(Cc4ccc5c(c4)CN(C(=O)c4cc(C(C)C)c(O)cc4O)C5)CC3)CC2)cc1 (atropisomer, axis not shown) [Example 11] | 51 | 2.9 | –
CO[C@@H](C)COc1cc(O[C@H]2CCNC2)c2cc(C3CC3)c(-c3c(C)c(F)cc4[nH]ncc34)c(OCc3ccc(C(=O)N4CCN(C(=O)c5ccc6c(c5)CN(C(=O)c5cc(C(C)C)c(O)cc5O)C6)C[C@@H]4C)cc3)c2n1 [Example 16] | 30 | – | –
Cc1c(F)cc2[nH]ncc2c1-c1c(C2CC2)cc2c(N3C[C@@H]4C[C@H]3CN4)nc(OC3CCOCC3)nc2c1OCc1ccc(C(=O)N2CCCN(Cc3ccc4c(c3)CN(C(=O)c3cc(C(C)C)c(O)cc3O)C4)CC2)cc1 (atropisomer, axis not shown) [Example 7] | 20 | – | –
Cc1c(F)cc2[nH]ncc2c1-c1c(C2CC2)cc2c(N3C[C@@H]4C[C@H]3CN4)nc(OC3CCOCC3)nc2c1OCc1ccc(CN2CCN(C(=O)c3ccc4c(c3)CN(C(=O)c3cc(C(C)C)c(O)cc3O)C4)CC2)cc1 (atropisomer, axis not shown) [Example 15] | 17 | 3.9 | –
Cc1c(F)cc2[nH]ncc2c1-c1c(C2CC2)cc2c(N3C[C@@H]4C[C@H]3CN4)nc(OC3CCOCC3)nc2c1OCc1ccc(C(=O)N2CCN(CCCOc3ncc4c(n3)CCN(C(=O)c3cc(C(C)C)c(O)cc3O)C4)CC2)cc1 (atropisomer, axis not shown) [Example 19] | – | 2.3 | –
Cc1c(F)cc2[nH]ncc2c1-c1c(C2CC2)cc2c(N3C[C@@H]4C[C@H]3CN4)nc(OC3CCOCC3)nc2c1OCc1ccc(C(=O)N2CCN(C(=O)c3ccc4c(c3)CN(C(=O)c3cc(C(C)C)c(O)cc3O)C4)C[C@H]2C)cc1 (atropisomer, axis not shown) [Example 3] | 46 | 2.8 | –
Cc1c(F)cc2[nH]ncc2c1-c1c(C2CC2)cc2c(N3C[C@@H]4C[C@H]3CN4)nc(OC3CCOCC3)nc2c1OCc1ccc(C(=O)N2CCN(CC3CN(Cc4ccc5c(c4)CN(C(=O)c4cc(C(C)C)c(O)cc4O)C5)C3)CC2)cc1 (atropisomer, axis not shown) [Example 12] | 20 | 3.5 | –
Cc1c(F)cc2[nH]ncc2c1-c1c(C2CC2)cc2c(N3C[C@@H]4C[C@H]3CN4)nc(OC3CCOCC3)nc2c1OCc1ccc(C(=O)N2CCN(C(=O)c3ccc4c(c3)CN(C(=O)c3cc(C(C)C)c(O)cc3O)C4)C[C@@H]2C)cc1 (atropisomer, axis not shown) [Example 2] | 44 | 1.9 | –
Cc1c(F)cc2[nH]ncc2c1-c1c(C2CC2)cc2c(N3C[C@@H]4C[C@H]3CN4)nc(OC3CCOCC3)nc2c1OCc1ccc(C(=O)N2C[C@H]3CN(Cc4ccc5c(c4)CN(C(=O)c4cc(C(C)C)c(O)cc4O)C5)C[C@H]3C2)cc1 (atropisomer, axis not shown) [Example 4] | 15 | 5.1 | –

Reference: patent US20250388569A1, “HETEROCYCLIC COMPOUND FOR INHIBITING AND/OR INDUCING DEGRADATION OF KRAS PROTEIN” (ASTELLAS PHARMA INC., priority 2022, published 2025)
